This note sets out measurements from patent publication US11130762B2, “Azaaryl derivative, preparation method therefor, and application thereof for use in pharmacy” (Abbisko Therapeutics Co., Ltd., priority 2017, dated 2021).

In one assay the target is CSF-1R (Homo sapiens, UniProt P07333). In words: CSF-1R in vitro biochemical kinase study (ADP-Glo assay). As to conditions: 500 μM ATP, * = average of multiple tests, read-out: Enzymatic experiment CSF1R IC50. On the procedure: A. CSF-1R In Vitro Biochemical Kinase Study
CSF-1R, sequence (P07333 20-972): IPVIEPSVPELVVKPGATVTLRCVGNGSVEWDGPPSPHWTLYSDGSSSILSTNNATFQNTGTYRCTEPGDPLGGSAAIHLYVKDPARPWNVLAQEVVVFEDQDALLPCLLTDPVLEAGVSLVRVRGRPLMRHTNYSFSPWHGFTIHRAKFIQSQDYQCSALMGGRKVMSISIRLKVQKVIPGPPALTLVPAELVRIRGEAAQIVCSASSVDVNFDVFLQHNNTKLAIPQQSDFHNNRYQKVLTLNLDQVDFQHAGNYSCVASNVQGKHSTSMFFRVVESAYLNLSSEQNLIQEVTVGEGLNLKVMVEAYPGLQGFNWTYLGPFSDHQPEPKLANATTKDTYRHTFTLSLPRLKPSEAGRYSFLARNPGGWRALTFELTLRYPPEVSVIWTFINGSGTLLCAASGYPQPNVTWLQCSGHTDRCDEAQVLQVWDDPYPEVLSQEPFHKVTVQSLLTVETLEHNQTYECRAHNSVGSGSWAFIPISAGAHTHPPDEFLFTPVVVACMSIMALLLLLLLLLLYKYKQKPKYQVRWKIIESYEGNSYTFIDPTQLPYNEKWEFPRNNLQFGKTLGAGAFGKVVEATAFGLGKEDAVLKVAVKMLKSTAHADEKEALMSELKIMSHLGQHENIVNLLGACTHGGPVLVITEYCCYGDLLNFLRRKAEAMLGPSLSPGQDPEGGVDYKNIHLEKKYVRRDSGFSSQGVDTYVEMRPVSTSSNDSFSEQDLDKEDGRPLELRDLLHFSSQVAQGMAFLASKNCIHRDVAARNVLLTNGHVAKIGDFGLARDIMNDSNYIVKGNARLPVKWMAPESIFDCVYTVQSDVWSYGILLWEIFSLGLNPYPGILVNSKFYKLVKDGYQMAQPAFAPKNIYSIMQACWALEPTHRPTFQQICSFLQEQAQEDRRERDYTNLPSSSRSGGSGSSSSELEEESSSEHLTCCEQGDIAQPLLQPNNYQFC
In the present invention, the inhibitory activity of compounds against the CSF-1R activity was determined by using CSF-1R ADP-Glo assay. The compound-mediated inhibition effect was achieved by inhibiting the production of ADP from consumption of ATP, and the activities of compounds were evaluated by using the ADP-Glo kit (Promega, cat. No. V9101). The specific experimental process was as follows:
1. The kinase reaction performed in the present invention was carried out in a 384-well plate (Perkinelmer, cat. No. 6007290), 3.95 nM of CSF-1R, 500 μM of ATP, and 0.2 mg/mL of polypeptide (Poly (Glu4, Try1), Sigma, cat. No. P0275) were respectively weighed and added to each well:
2. following reagents were then added to each well to reach the final reaction system: 40 mM Tris, pH 7.5, 20 mM MgCl2, 0.01% Triton X-100, 0.1 mg/mL BSA, 2.5 mM DTT, and 0.1% DMSO;
3. the reaction was conducted at 30° C. for 60 min;
4. then an equal volume of stop solution (ADP-Glo) was added to the kinase reaction system;
5. the mixed solution was incubated at 25° C. for 60 min, and the kinase reaction was then terminated;
6. a two-fold volume of detection reagent was then added to each well;
7. the mixed solution was incubated at 25° C. for 30 min;
8. the compound IC50 value was measured by using a plate reader (Tecan, M1000) and a four-parameter curve was generated in Graphpad Prism.
A general note: ADP-Glo first removes unused ATP, then detects ADP through luciferase.

Another assay has as its target PDGFRA kinase (Homo sapiens, UniProt P16234). In words: PDGFRA in vitro biochemical kinase study (Caliper EZ Reader). As to conditions: Caliper mobility shift; read-out: Enzymatic experiment PDGFRA IC50. Here is the method: B. KIT/PDGFRA In Vitro Biochemical Kinase Study
1. Preparation of 1-Fold Kinase Buffer and Stop Solution
1.2 stop solution: 100 mM HEPES, pH 7.5, 0.015% Brij-35, 0.2% Coating Reagent #3, 50 mM EDTA
2. Preparation of Compound Solution
2.1 Dilution of Compound Solution
1) The final concentration of the compound solution was 40 μM, and the concentration of the prepared stock solution was 50 times of the final concentration, i.e., 2 mM.
2) 80 μL of 100% DMSO was added to the second well of the 96-well plate, then 20 μL of 10 mM compound solution was added, and thereby 2 mM compound solution was prepared, 60 μL of 100% DMSO was added to other wells, 20 μL of compound was taken from the second well, added to the third well and diluted by 4 times. This serial 4-time dilution was conducted in sequence for the total of 10 concentrations.
2.2 5-Fold Compound Solution Transferred to a Reaction Plate
1) 10 μL of solution was taken from each well of the above 96-well plate and added to another 96-well plate, and 90 μL of kinase buffer was added.
2) 5 μL of solution was taken from the above 96-well plate and added to a 384-well reaction plate.
1) KIT/PDGFRA kinase was added to the 1-fold kinase buffer solution to obtain a 2.5-fold kinase solution.
2) FAM-labeled polypeptide and ATP were added to the 1-fold kinase buffer solution to obtain a 2.5-fold substrate solution.
3) 10 μL of 2.5-fold kinase solution was added to the 384-well reaction plate, which already contained 5 μL of 5-fold compound in 10% DMSO. And the mixed solution was incubated at room temperature for 10 min.
4) 10 μL of 2.5-fold substrate solution was added to the 384-well reaction plate.
5) Kinase reaction and termination: the mixed solution was incubated at 28° C. for a certain period of time, and 25 μL of stop solution was added to stop the reaction.
2.4 Data Reading of Caliper EZ Reader II
2.5 Calculation of Percent Inhibition and IC50
1) Percent conversion data were copied from the Caliper EZ Reader. […]

As usually defined, the IC50 is the midpoint of a concentration-inhibition curve.

PDGFRA kinase, sequence (P16234 24-1089): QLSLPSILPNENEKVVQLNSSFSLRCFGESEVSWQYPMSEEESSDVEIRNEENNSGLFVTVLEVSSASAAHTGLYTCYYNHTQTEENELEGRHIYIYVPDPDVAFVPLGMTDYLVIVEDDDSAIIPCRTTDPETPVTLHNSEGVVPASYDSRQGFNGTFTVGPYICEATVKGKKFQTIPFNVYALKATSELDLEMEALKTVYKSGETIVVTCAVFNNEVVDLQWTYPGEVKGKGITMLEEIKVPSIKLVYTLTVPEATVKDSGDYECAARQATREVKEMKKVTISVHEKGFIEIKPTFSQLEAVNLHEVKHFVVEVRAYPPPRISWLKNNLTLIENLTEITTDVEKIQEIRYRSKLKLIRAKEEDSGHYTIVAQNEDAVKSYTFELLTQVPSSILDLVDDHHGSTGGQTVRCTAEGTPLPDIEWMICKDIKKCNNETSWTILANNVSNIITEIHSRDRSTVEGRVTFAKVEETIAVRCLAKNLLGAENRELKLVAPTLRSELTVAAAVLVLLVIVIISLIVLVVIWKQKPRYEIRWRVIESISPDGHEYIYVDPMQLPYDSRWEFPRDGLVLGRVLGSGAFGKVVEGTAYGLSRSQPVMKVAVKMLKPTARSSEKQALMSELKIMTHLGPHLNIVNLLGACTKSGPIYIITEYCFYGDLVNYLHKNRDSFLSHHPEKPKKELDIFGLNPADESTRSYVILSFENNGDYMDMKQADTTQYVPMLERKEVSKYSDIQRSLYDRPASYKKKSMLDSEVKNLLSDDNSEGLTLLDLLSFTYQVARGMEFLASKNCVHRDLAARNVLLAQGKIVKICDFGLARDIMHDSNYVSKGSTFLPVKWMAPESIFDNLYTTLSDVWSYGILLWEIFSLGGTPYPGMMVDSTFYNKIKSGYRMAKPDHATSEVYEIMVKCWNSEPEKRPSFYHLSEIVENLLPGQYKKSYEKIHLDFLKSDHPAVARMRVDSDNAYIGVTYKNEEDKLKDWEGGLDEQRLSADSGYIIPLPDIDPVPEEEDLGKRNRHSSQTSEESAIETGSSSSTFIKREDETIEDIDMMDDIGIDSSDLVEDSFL

As to `Cc1nc(-c2cnc3n(c2=O)CCCN3C)ccc1Oc1ccnc(-c2cnn(C)c2)c1` [Example 1, 9-methyl-3-(6-methyl-5-((2-(1-methyl-1H-pyrazol-4-yl)pyridin-4-yl)oxy)pyridin-2-yl)-6,7,8,9-tetrahydro-4H-pyrimido[1,2-a]pyrimidin-4-one], the IC50 at CSF-1R amounted to 73.7 nM; at PDGFRA kinase, 9310 nM.

Consider `CCN1CCCn2c1ncc(-c1ccc(Oc3ccnc(-c4cnn(C)c4)c3)c(C)n1)c2=O` [Example 4], for which the IC50 turned out to be 90.7 nM at CSF-1R and 757 nM on PDGFRA kinase.
